In brackets after ≈: the same amount, converted by molar mass.
Assay: Solubility test (water solubility) by LC-MS analysis
Format: physicochemical
Protocol: In the LC-MS analysis, liquid chromatography (LC) separation was carried out with ACQUITY UPLC manufactured by Waters Corporation, and MS analysis (mass spectrometry) was carried out with Xevo G2 Tof MS manufactured by Waters Corporation. Acquity UPLC BEH C8 (2.1×100 mm, 1.7 μm) was used as a column for the LC separation. Acetonitrile was used for Mobile Phase A and a 0.1% aqueous solution of formic acid was used for Mobile Phase B. The injection amount of the sample was 5.0 μL. Note that in the analysis, the wavelength of a photodiode array detector was set to 330 nm±1 nm.
In a 5-mL sample bottle, 1 mg of SFPy-hpp was put and 2 mL of N,N-dimethylformamide was added thereto. This mixture was irradiated with ultrasonic waves for five minutes. After it was confirmed that the solid was completely dissolved, this solution was diluted by 2.5 times with acetonitrile, whereby the concentration of the solution was adjusted to 200 mg/L. This solution was diluted with acetonitrile, whereby a solution with a concentration of 4 mg/L, a solution with a concentration of 2 mg/L, and a solution with a concentration of 0.2 mg/L were prepared. The prepared solutions were subjected to LC-MS analysis, and the peak area values derived from SFPy-hpp, which were obtained at the respective solution concentrations, were used to form calibration curves.
Next, the water solubility of SFPy-hpp was measured.
In a 5-mL sample bottle, 1 mg of SFPy-hpp was put and 1 mL of water was added thereto. This mixture was irradiated with ultrasonic waves for five minutes. This mixture was filtered through a membrane filter to remove the solid. The obtained solution was subjected to LC-MS analysis.

c1cc(-c2ccc3c(c2)C2(c4ccccc4-c4ccccc42)c2ccccc2-3)nc(N2CCCN3CCCN=C32)c1 [SFPy-hpp, 1-[6-(9,9′-spirobi[9H-fluoren]-2-yl)pyridin-2-yl]-1,3,4,6,7,8-hexahydro-2H-pyrimido[1,2-a]pyrimidine]
solubility in 1 mL of water (1 mg compound in 1 mL water, ultrasonic waves five minutes, membrane filtered, LC-MS with calibration curve): 0.00029 mg
solubility at 5 min (thermodynamic from solid, water, from calibration curve and LC-MS signal intensity, read-out: weight fraction of the water solubility): 0.29 µg/mL (≈ 0.546 µM)
water solubility (in words) (water, conclusion from LC-MS solubility test): extremely low water solubility

Reference: US20240284792A1, “ORGANIC COMPOUND, LIGHT-EMITTING DEVICE, DISPLAY APPARATUS, AND ELECTRONIC DEVICE” (SEMICONDUCTOR ENERGY LABORATORY CO., LTD., priority 2023, published 2024)
